Source: US20250163104A1, “MACROCYCLIC IMMUNOMODULATORS” (priority 2021, published 2025)
*1 amine or outer side, *2 acyl side, *3 side chain or, on linkers, in order; H or OH if unused. Where a SMILES comes first, the peptide text is derived from it. Bridges are numbered along the chain shown (N, C = ends). [ ]: non-standard residue; d: D form. The star is where a group is joined. ξ: configuration not given here. Bip = N[C@@H](Cc1ccc(-c2ccccc2)cc1)C(=O)O; Phe(3-Me) = Cc1cccc(C[C@H](N)C(=O)O)c1; 4Pal = N[C@@H](Cc1ccncc1)C(=O)O; Cha = N[C@@H](CC1CCCCC1)C(=O)O; Cit = NC(=O)NCCC[C@H](N)C(=O)O; X6 = O=C(C(CCCO)N[*:1])[*:2]; Carboxymethyl = O=C(O)C*; Orn = NCCC[C@H](N)C(=O)O; Dab = NCC[C@H](N)C(=O)O; Dap = NC[C@H](N)C(=O)O; ξOrn = NCCCC(N)C(=O)O

molecular target: T1, human PD-1 / PD-L1-Ig binding on Jurkat cell line over-expressing human PD-1 (Jurkat-PD-1) (Homo sapiens, UniProt Q15116); experiment: Jurkat-PD-1 Cell Binding High-Content Screening Assay (CBA); assay type: cell-based; conditions: Jurkat-PD-1 cells, PE-labeled PD-L1-Ig 20 nM final; read-out: Jurkat HPD1_PDL1 IC50
T1 construct: expressed in transfected cells; host or cells: Jurkat
Procedure, shortened: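 Cell-bound PE-labeled PD-L1-Ig (20 nM final, 1 h) measured by high-content imaging after fixation and Hoechst 33342 counterstain. Compound was applied first for 2 h at 37° C. to Jurkat cells over-expressing human PD-1 in DMEM with 10% FCS.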

T1 sequence (Q15116 25-288): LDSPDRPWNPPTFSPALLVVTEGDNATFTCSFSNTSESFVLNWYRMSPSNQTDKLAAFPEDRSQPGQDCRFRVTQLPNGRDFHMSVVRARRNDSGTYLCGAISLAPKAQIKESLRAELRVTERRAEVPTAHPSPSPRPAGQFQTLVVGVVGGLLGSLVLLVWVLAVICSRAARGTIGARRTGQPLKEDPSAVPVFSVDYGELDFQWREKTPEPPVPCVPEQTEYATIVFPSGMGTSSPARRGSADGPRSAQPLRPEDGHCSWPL

| IC50 [nM] | SMILES |
| --- | --- |
| 259 | CC[C@H](C)[C@@H]1NC(=O)[C@H](Cc2ccc(-c3ccccc3)cc2)NC(=O)[C@H](C(C)C)NC(=O)[C@H](Cc2cccc(C)c2)NC(=O)[C@H](CC(=O)O)NC(=O)[C@H](Cc2ccc(N=[N+]=[N-])cc2)NC(=O)[C@H](Cc2ccncc2)NC(=O)CSC[C@@H](C(=O)N[C@@H](C)C(N)=O)NC(=O)[C@H]([C@@H](C)O)NC(=O)[C@H](C(C)C)NC(=O)[C@H](CC2CCCCC2)NC(=O)[C@H](CCN)NC(=O)[C@@H](CC(C)C)NC(=O)[C@H](CCCN)NC1=O [Compound 2240] |
| 32.4 | CCC(C)[C@@H]1NC(=O)[C@H](Cc2ccc(-c3ccccc3)cc2)NC(=O)[C@H](C(C)C)NC(=O)[C@H](Cc2cc(C)ccc2C)NC(=O)[C@H](CC(=O)O)NC(=O)[C@H](Cc2ccc(OCC(=O)O)cc2)NC(=O)[C@H](CN)NC(=O)CSC[C@@H](C(=O)N[C@@H](C)C(N)=O)NC(=O)[C@H]([C@@H](C)O)NC(=O)[C@H](C(C)C)NC(=O)[C@H](CC2CCCCC2)NC(=O)[C@H](CCN)NC(=O)[C@@H](CC(C)C)NC(=O)[C@H](CCCN)NC1=O (some centres unmarked) [Compound 2241] |
| 10.3 | CCC(C)[C@@H]1NC(=O)[C@H](Cc2ccc(-c3ccccc3)cc2)NC(=O)[C@H](C(C)C)NC(=O)[C@H](Cc2cccc(C)c2C)NC(=O)[C@H](CC(=O)O)NC(=O)[C@H](Cc2ccc(OCC(=O)O)cc2)NC(=O)[C@H](CN)NC(=O)CSC[C@@H](C(=O)N[C@@H](C)C(N)=O)NC(=O)[C@H]([C@@H](C)O)NC(=O)[C@H](C(C)C)NC(=O)[C@H](CC2CCCCC2)NC(=O)[C@H](CCN)NC(=O)[C@@H](CC(C)C)NC(=O)[C@H](CCCN)NC1=O (some centres unmarked) [Compound 2242] |
| 16.2 | CCC(C)[C@@H]1NC(=O)[C@H](Cc2ccc(-c3ccccc3)cc2)NC(=O)[C@H](C(C)C)NC(=O)[C@H](Cc2cccc(C)c2F)NC(=O)[C@H](CC(=O)O)NC(=O)[C@H](Cc2ccc(OCC(=O)O)cc2)NC(=O)[C@H](CN)NC(=O)CSC[C@@H](C(=O)N[C@@H](C)C(N)=O)NC(=O)[C@H]([C@@H](C)O)NC(=O)[C@H](C(C)C)NC(=O)[C@H](CC2CCCCC2)NC(=O)[C@H](CCN)NC(=O)[C@@H](CC(C)C)NC(=O)[C@H](CCCN)NC1=O (some centres unmarked) [Compound 2243] |
| 32.9 | CCC(C)[C@@H]1NC(=O)[C@H](Cc2ccc(-c3ccccc3)cc2)NC(=O)[C@H](C(C)C)NC(=O)[C@H](Cc2ccc(F)c(C)c2)NC(=O)[C@H](CC(=O)O)NC(=O)[C@H](Cc2ccc(OCC(=O)O)cc2)NC(=O)[C@H](CN)NC(=O)CSC[C@@H](C(=O)N[C@@H](C)C(N)=O)NC(=O)[C@H]([C@@H](C)O)NC(=O)[C@H](C(C)C)NC(=O)[C@H](CC2CCCCC2)NC(=O)[C@H](CCN)NC(=O)[C@@H](CC(C)C)NC(=O)[C@H](CCCN)NC1=O (some centres unmarked) [Compound 2244] |
| 45.5 | CCC(C)[C@@H]1NC(=O)[C@H](Cc2ccc(-c3ccccc3)cc2)NC(=O)[C@H](C(C)C)NC(=O)[C@H](Cc2ccc(F)c(C(F)(F)F)c2)NC(=O)[C@H](CC(=O)O)NC(=O)[C@H](Cc2ccc(OCC(=O)O)cc2)NC(=O)[C@H](CN)NC(=O)CSC[C@@H](C(=O)N[C@@H](C)C(N)=O)NC(=O)[C@H]([C@@H](C)O)NC(=O)[C@H](C(C)C)NC(=O)[C@H](CC2CCCCC2)NC(=O)[C@H](CCN)NC(=O)[C@@H](CC(C)C)NC(=O)[C@H](CCCN)NC1=O (some centres unmarked) [Compound 2245] |
| 13.2 | CCC(C)[C@@H]1NC(=O)[C@H](Cc2ccc(-c3ccccc3)cc2)NC(=O)[C@H](C(C)C)NC(=O)[C@H](Cc2cc(OC)c(F)cc2F)NC(=O)[C@H](CC(=O)O)NC(=O)[C@H](Cc2ccc(OCC(=O)O)cc2)NC(=O)[C@H](CN)NC(=O)CSC[C@@H](C(=O)N[C@@H](C)C(N)=O)NC(=O)[C@H]([C@@H](C)O)NC(=O)[C@H](C(C)C)NC(=O)[C@H](CC2CCCCC2)NC(=O)[C@H](CCN)NC(=O)[C@@H](CC(C)C)NC(=O)[C@H](CCCN)NC1=O (some centres unmarked) [Compound 2246] |
| 13.3 | CCC(C)[C@@H]1NC(=O)[C@H](Cc2ccc(-c3ccccc3)cc2)NC(=O)[C@H](C(C)C)NC(=O)[C@H](Cc2cc(C)ccc2F)NC(=O)[C@H](CC(=O)O)NC(=O)[C@H](Cc2ccc(OCC(=O)O)cc2)NC(=O)[C@H](CN)NC(=O)CSC[C@@H](C(=O)N[C@@H](C)C(N)=O)NC(=O)[C@H]([C@@H](C)O)NC(=O)[C@H](C(C)C)NC(=O)[C@H](CC2CCCCC2)NC(=O)[C@H](CCN)NC(=O)[C@@H](CC(C)C)NC(=O)[C@H](CCCN)NC1=O (some centres unmarked) [Compound 2247] |
| 13.8 | CCC(C)[C@@H]1NC(=O)[C@H](Cc2ccc(-c3ccccc3)cc2)NC(=O)[C@H](C(C)C)NC(=O)[C@H](Cc2cc(OC)ccc2F)NC(=O)[C@H](CC(=O)O)NC(=O)[C@H](Cc2ccc(OCC(=O)O)cc2)NC(=O)[C@H](CN)NC(=O)CSC[C@@H](C(=O)N[C@@H](C)C(N)=O)NC(=O)[C@H]([C@@H](C)O)NC(=O)[C@H](C(C)C)NC(=O)[C@H](CC2CCCCC2)NC(=O)[C@H](CCN)NC(=O)[C@@H](CC(C)C)NC(=O)[C@H](CCCN)NC1=O (some centres unmarked) [Compound 2248] |
| 134 | CCC(C)[C@@H]1NC(=O)[C@H](Cc2ccc(-c3ccccc3)cc2)NC(=O)[C@H](C(C)C)NC(=O)[C@H](Cc2cc(C)ccc2OC)NC(=O)[C@H](CC(=O)O)NC(=O)[C@H](Cc2ccc(OCC(=O)O)cc2)NC(=O)[C@H](CN)NC(=O)CSC[C@@H](C(=O)N[C@@H](C)C(N)=O)NC(=O)[C@H]([C@@H](C)O)NC(=O)[C@H](C(C)C)NC(=O)[C@H](CC2CCCCC2)NC(=O)[C@H](CCN)NC(=O)[C@@H](CC(C)C)NC(=O)[C@H](CCCN)NC1=O (some centres unmarked) [Compound 2249] |
| 43.8 | CC(C)C[C@H]1NC(=O)[C@H](CCCN)NC(=O)[C@H](CCCCN)NC(=O)[C@H](Cc2ccc(-c3ccccc3)cc2)NC(=O)[C@H](C(C)C)NC(=O)[C@H](Cc2c[nH]c3ccccc23)NC(=O)[C@H](CC(=O)O)NC(=O)[C@H](Cc2ccncc2)NC(=O)[C@H](CN)NC(=O)CSC[C@@H](C(=O)N[C@@H](CCCN)C(N)=O)NC(=O)[C@H]([C@@H](C)O)NC(=O)[C@H](C(C)C)NC(=O)[C@H](CC2CCCCC2)NC(=O)[C@H](CCN)NC1=O [Compound 2250] ({CH2CO}-[Dap][4Pal]DWV[Bip]K[Orn][dL][Dab][Cha]VTC[Orn]-NH2; thioether N-14) |
| 139 | CC(C)C[C@H]1NC(=O)[C@H](CCCN)NC(=O)[C@H](CCCCN)NC(=O)[C@H](Cc2ccc(-c3ccccc3)cc2)NC(=O)[C@H](C(C)C)NC(=O)[C@H](Cc2c[nH]c3ccccc23)NC(=O)[C@H](CC(=O)O)NC(=O)[C@H](Cc2ccncc2)NC(=O)[C@H](CN)NC(=O)CSC[C@@H](C(=O)N[C@@H](CCCN)C(N)=O)NC(=O)[C@H](CN)NC(=O)[C@H](C(C)C)NC(=O)[C@H](CC2CCCCC2)NC(=O)[C@H](CCN)NC1=O [Compound 2251] ({CH2CO}-[Dap][4Pal]DWV[Bip]K[Orn][dL][Dab][Cha]V[Dap]C[Orn]-NH2; thioether N-14) |
| 138 | CC(C)C[C@H]1NC(=O)[C@H](CCCN)NC(=O)[C@H](CCCCN)NC(=O)[C@H](Cc2ccc(-c3ccccc3)cc2)NC(=O)[C@H](C(C)C)NC(=O)[C@H](Cc2c[nH]c3ccccc23)NC(=O)[C@H](CC(=O)O)NC(=O)[C@H](Cc2ccncc2)NC(=O)[C@H](CN)NC(=O)CSC[C@@H](C(=O)N[C@@H](CCCN)C(N)=O)NC(=O)[C@H](CCCN)NC(=O)[C@H](C(C)C)NC(=O)[C@H](CC2CCCCC2)NC(=O)[C@H](CCN)NC1=O [Compound 2253] ({CH2CO}-[Dap][4Pal]DWV[Bip]K[Orn][dL][Dab][Cha]V[Orn]C[Orn]-NH2; thioether N-14) |
| 123 | CC(C)C[C@H]1NC(=O)[C@H](CCCN)NC(=O)[C@H](CCCCN)NC(=O)[C@H](Cc2ccc(-c3ccccc3)cc2)NC(=O)[C@H](C(C)C)NC(=O)[C@H](Cc2c[nH]c3ccccc23)NC(=O)[C@H](CC(=O)O)NC(=O)[C@H](Cc2ccncc2)NC(=O)[C@H](CN)NC(=O)CSC[C@@H](C(=O)N[C@@H](CCCN)C(N)=O)NC(=O)[C@H](CCCNC(=N)N)NC(=O)[C@H](C(C)C)NC(=O)[C@H](CC2CCCCC2)NC(=O)[C@H](CCN)NC1=O [Compound 2254] ({CH2CO}-[Dap][4Pal]DWV[Bip]K[Orn][dL][Dab][Cha]VRC[Orn]-NH2; thioether N-14) |
| 11.8 | Cc1cccc(C[C@@H]2NC(=O)[C@H](CC(=O)O)NC(=O)[C@H](Cc3ccc(OCC(=O)O)cc3)NC(=O)[C@H](CN)NC(=O)CSC[C@@H](C(=O)NCC(N)=O)NC(=O)[C@H]([C@@H](C)O)NC(=O)[C@H](C(C)C)NC(=O)[C@H](CC3CCCCC3)NC(=O)[C@H](CCN)NC(=O)[C@@H](CC(C)C)NC(=O)[C@H](CCCN)NC(=O)[C@H](CCCNC(N)=O)NC(=O)[C@H](Cc3ccc(-c4ccccc4)cc3)NC(=O)[C@H](C(C)C)NC2=O)c1 [Compound 2255] ({CH2CO}-[Dap]Y(Carboxymethyl)D[Phe(3-Me)]V[Bip][Cit][Orn][dL][Dab][Cha]VTCG-NH2; thioether N-14) |
| 4.9 | Cc1cccc(C[C@@H]2NC(=O)[C@H](CC(=O)O)NC(=O)[C@H](Cc3ccc(OCC(=O)O)cc3)NC(=O)[C@H](CN)NC(=O)CSC[C@@H](C(=O)N[C@@H](CCN)C(N)=O)NC(=O)C(CCCN)NC(=O)[C@H](C(C)C)NC(=O)[C@H](CC3CCCCC3)NC(=O)[C@H](CCN)NC(=O)[C@@H](CC(C)C)NC(=O)[C@H](CCCN)NC(=O)[C@H](Cc3ccc(O)cc3)NC(=O)[C@H](Cc3ccc(-c4ccccc4)cc3)NC(=O)[C@H](Cc3ccc(O)cc3)NC2=O)c1 (stereo partly drawn) [Compound 2256] ({CH2CO}-[Dap]Y(Carboxymethyl)D[Phe(3-Me)]Y[Bip]Y[Orn][dL][Dab][Cha]V[ξOrn]C[Dab]-NH2; thioether N-14) |
| 7.7 | Cc1cccc(C[C@@H]2NC(=O)[C@H](CC(=O)O)NC(=O)[C@H](Cc3ccc(OCC(=O)O)cc3)NC(=O)[C@H](CN)NC(=O)CSC[C@@H](C(=O)N[C@@H](CCN)C(N)=O)NC(=O)C(CCCO)NC(=O)[C@H](C(C)C)NC(=O)[C@H](CC3CCCCC3)NC(=O)[C@H](CCN)NC(=O)[C@@H](CC(C)C)NC(=O)[C@H](CCCN)NC(=O)[C@H](Cc3ccc(O)cc3)NC(=O)[C@H](Cc3ccc(-c4ccccc4)cc3)NC(=O)[C@H](C(C)C)NC2=O)c1 (stereo partly drawn) [Compound 2257] ({CH2CO}-[Dap]Y(Carboxymethyl)D[Phe(3-Me)]V[Bip]Y[Orn][dL][Dab][Cha]V[X6]C[Dab]-NH2; thioether N-14) |
